Columns and labels:
[1] = test system: cadmium-induced testicular demage; settings: Kar, Das and Mukerji 1960; cited from earlier work
[2] = test system: toxicity of mercury, silver and thallium; settings: observed by other researchers; cited from earlier work
[3] = test system: toxic effects of Na3 Au(S2 O3)2.2H2 O; assay: Gold toxicity in mice given sodium selenite prior to (drinking water) or after (injection) the gold compound; assay type: in vivo; settings: gold at or slightly exceeding reported LD50, vs gold-only control
Procedure: (§1) A number of experiments in which sodium selenite was given to mice both prior to and after treatment with a gold compound were conducted. In the first series of experiments in which the selenium compound was administered prior to the gold injection, mice were given sodium selenite in their drinking water over an extended period of time. Periodically, the mice were sacrificed and the kidney and liver were analyzed to monitor the accumulation of selenium. When observed selenium levels in the liver were on the order of 5 ppm, the remaining animals were given the gold compound at levels slightly exceeding the reported LD50 value.
In the second series of experiments, in which sodium selenite were injected after the gold injection, the mice were given dosages of gold compounds at the reported LD50 value and were then injected with sodium selenite. In both series of experiments, a control group which received the gold compound but no selenium compound was maintained. […] In all cases, the gold was administered as Na3 Au(S2 O3)2.2H2 O.

[4] = Accumulation of selenium in tissue of mice; assay type: in vivo; settings: sodium selenite in drinking water over an extended period, level at which gold was given
Procedure: as §1
In these experiments, large groups of mice were fed other type selenium compounds, which were sodium selenate, selenium yeast and selenocystine. Periodically, one would be sacrificed and the selenium concentration of the kidney and liver would be determined. When above 5 to about 7 ppm selenium concentrations were obtained, the remaining mice were given injections of Na3 Au(S2 O3)2.2H2 O at the reported LD50 value. A control group that received no dietary selenium was maintained. This control group was given the gold salt at the same time as the selenium accumulated mice. The toxic effects of the gold was then compared in the two groups of mice.

Row | Structure (SMILES) | protection against cadmium-induced testicular damage [1] | protection against the toxicity of mercury, silver and thallium [2] | toxic effects compared with mice which received only the gold treatment [3] | observed selenium levels in the liver [4]
1 | [Se] [selenium] | prevents cadmium-induced testicular demage | Protection effects |  | 
2 | O=[Se](O)O [sodium selenite] |  |  | markedly reduced toxic effects | ~5 ppm
